Paper PMC6219798, “A novel decarboxylating amidohydrolase involved in avoiding metabolic dead ends during cyanuric acid catabolism in Pseudomonas sp. strain ADP” (PLoS ONE, 2018)
Blank lines part the entries; values can stand above or below the compound they belong to.

How the values were obtained:
AtzEG = target: T1, AtzEG (Pseudomonas sp. ADP, UniProt Q936X3); experiment: GDH-coupled ammonia release at […] nm; assay type: biochemical; details: substrate made in situ by AtzD from 1 mM cyanuric acid; 0.17 uM enzyme, 25 mM potassium phosphate pH 8.5
T1 construct: gene atzE; AtzE and AtzG co-expressed from pACYCDuet-1 in E. coli BL21(DE3); heterotetramer; with 1-carboxybiuret hydrolase subunit AtzG
T1 sequence (Q936X3 1-457): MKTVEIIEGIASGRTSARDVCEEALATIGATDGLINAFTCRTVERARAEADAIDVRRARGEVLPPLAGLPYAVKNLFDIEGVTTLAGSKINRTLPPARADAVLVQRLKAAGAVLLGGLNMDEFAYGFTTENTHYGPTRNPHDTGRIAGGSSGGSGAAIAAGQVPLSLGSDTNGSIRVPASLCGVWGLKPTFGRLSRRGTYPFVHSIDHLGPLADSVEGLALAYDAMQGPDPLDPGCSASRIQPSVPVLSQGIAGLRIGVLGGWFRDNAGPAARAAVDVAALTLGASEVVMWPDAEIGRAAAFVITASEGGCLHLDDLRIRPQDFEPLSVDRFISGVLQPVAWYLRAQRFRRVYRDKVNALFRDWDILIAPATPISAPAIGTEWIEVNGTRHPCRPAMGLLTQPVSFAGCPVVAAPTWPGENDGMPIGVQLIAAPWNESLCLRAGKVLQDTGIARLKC
T1 sequence (A0A384E126 1-68 partner): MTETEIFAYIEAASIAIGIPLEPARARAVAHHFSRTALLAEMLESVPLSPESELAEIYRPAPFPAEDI

AtzD = target: T2, AtzD (Pseudomonas sp. ADP, UniProt P58329); experiment: UV absorbance at […] nm, ring opening; assay type: biochemical; details: 12 uM AtzD, 1 mM cyanuric acid
T2 construct: His6-tagged, E. coli BL21(DE3), Ni-NTA purified; cloning described elsewhere
T2 sequence (P58329 1-363): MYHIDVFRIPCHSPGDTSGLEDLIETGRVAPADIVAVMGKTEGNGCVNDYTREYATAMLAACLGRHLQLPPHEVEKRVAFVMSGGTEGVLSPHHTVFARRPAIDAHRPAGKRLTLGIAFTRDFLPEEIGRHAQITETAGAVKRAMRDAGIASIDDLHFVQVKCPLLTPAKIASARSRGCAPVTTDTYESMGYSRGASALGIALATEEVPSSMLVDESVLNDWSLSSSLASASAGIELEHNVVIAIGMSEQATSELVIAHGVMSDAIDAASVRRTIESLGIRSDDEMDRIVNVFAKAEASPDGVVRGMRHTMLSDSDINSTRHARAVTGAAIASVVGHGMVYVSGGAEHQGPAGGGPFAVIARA

[1] = target: AtzH from Pseudomonas sp. strain ADP, his-tag removed (Pseudomonas sp. strain ADP); experiment: SEC; size exclusion chromatography of AtzH after removal of the his-tag; Superdex preparation grade resin, 130 mL column, 25 mM HEPES, 200 mM NaCl, pH 7.5

Compound: NC(=O)NC(=O)NC(=O)O [1-carboxybiuret]
GDH-coupled ammonia release at 340 nm (AtzEG): The substrate for AtzEG (1-carboxybiuret) is unstable and was therefore produced in situ

Compound: O=c1[nH]c(=O)[nH]c(=O)[nH]1 [cyanuric acid, 1,3,5-triazine-2,4,6-triol]
UV absorbance at 214 nm, ring opening (AtzD): incubating AtzD and its substrate in the presence or absence of AtzH

stoichiometry N [1]: 2
Compound: AtzH from Pseudomonas sp. strain ADP, his-tag removed (enzyme)
